Experimental data: the supplement of paper PMC10307832

Columns and labels:
Assay in all cases: relative viability (nuclei count vs DMSO), 5 days (fraction); higher = more cells survive
Zosuquidar + Pictilisib = compound: O[C@@H](COc1cccc2ncccc12)CN1CCN([C@@H]2c3ccccc3[C@@H]3[C@H](c4ccccc42)C3(F)F)CC1 [Zosuquidar] + CS(=O)(=O)N1CCN(Cc2cc3nc(-c4cccc5[nH]ncc45)nc(N4CCOCC4)c3s2)CC1 [Pictilisib] (partner 1 µM)
Procedure, shortened: (§1)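 After 5 days of treatment, lung cancer cells in 1536-well plates were fixed and stained in a single step (final 0.05% Triton X-100, 1% formaldehyde, 1 ug/ml Hoechst) and their nuclei counted on 4× images. Treatment had been applied by pin tool the day after seeding as one drug alone or as a fixed anchor-drug dose with five library-drug doses (not always all listed) in √10 steps. Relative viability is the nuclei count of treated wells divided by that of vehicle wells, and values are medians of duplicate plates.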

Kobe2602 + Tozasertib = compound: C1=CC(=CC=C1NC(=S)NNC2=C(C=C(C=C2[N+](=O)[O-])C(F)(F)F)[N+](=O)[O-])F [Kobe2602] + Cc1cc(Nc2cc(N3CCN(C)CC3)nc(Sc3ccc(NC(=O)C4CC4)cc3)n2)n[nH]1 [Tozasertib] (partner 0.1 µM)
Procedure, shortened: as §1

Zosuquidar + Bortezomib = compound: O[C@@H](COc1cccc2ncccc12)CN1CCN([C@@H]2c3ccccc3[C@@H]3[C@H](c4ccccc42)C3(F)F)CC1 [Zosuquidar] + CC(C)C[C@H](NC(=O)[C@H](Cc1ccccc1)NC(=O)c1cnccn1)B(O)O [Bortezomib] (partner 0.002 µM)
Procedure, shortened: as §1

Zosuquidar + Olaparib = compound: O[C@@H](COc1cccc2ncccc12)CN1CCN([C@@H]2c3ccccc3[C@@H]3[C@H](c4ccccc42)C3(F)F)CC1 [Zosuquidar] + O=C(c1cc(Cc2n[nH]c(=O)c3ccccc23)ccc1F)N1CCN(C(=O)C2CC2)CC1 [Olaparib] (partner 8 µM)
Procedure, shortened: as §1

Row | Cell Line | relative viability (Zosuquidar + Pictilisib; first compound 0.01 µM) | relative viability (Zosuquidar + Pictilisib; first compound 0.03162 µM) | relative viability (Zosuquidar + Pictilisib; first compound 0.1 µM) | relative viability (Zosuquidar + Pictilisib; first compound 0.3162 µM) | relative viability (Zosuquidar + Pictilisib; first compound 1 µM) | relative viability (Kobe2602 + Tozasertib; first compound 0.2 µM) | relative viability (Kobe2602 + Tozasertib; first compound 0.6325 µM) | relative viability (Kobe2602 + Tozasertib; first compound 2 µM) | relative viability (Kobe2602 + Tozasertib; first compound 6.325 µM) | relative viability (Kobe2602 + Tozasertib; first compound 20 µM) | relative viability (Zosuquidar + Bortezomib; first compound 0.01 µM) | relative viability (Zosuquidar + Bortezomib; first compound 0.03162 µM) | relative viability (Zosuquidar + Bortezomib; first compound 0.1 µM) | relative viability (Zosuquidar + Bortezomib; first compound 0.3162 µM) | relative viability (Zosuquidar + Bortezomib; first compound 1 µM) | relative viability (Zosuquidar + Olaparib; first compound 0.01 µM) | relative viability (Zosuquidar + Olaparib; first compound 0.03162 µM) | relative viability (Zosuquidar + Olaparib; first compound 0.3162 µM) | relative viability (Zosuquidar + Olaparib; first compound 1 µM) | relative viability (Zosuquidar + Olaparib; first compound 0.1 µM)
1 | NCI-H1993 | 0.766 | 0.913 | 0.804 | 0.875 | 0.644 | 0.515 | 0.549 | 0.573 | 0.53 | 0.56 | 1.02 | 0.99 | 1.08 | 1.17 | 1.11 | 0.949 | 1.01 | 1.19 | 1.05 | –
2 | LK-2 | 0.625 | 0.529 | 0.576 | 0.59 | 0.53 | 0.174 | 0.188 | 0.189 | 0.174 | 0.174 | – | – | – | – | – | 0.542 | 0.891 | 0.752 | 0.852 | 0.597
3 | SW 1573 | 0.425 | 0.465 | 0.446 | 0.626 | 0.597 | 0.194 | 0.163 | 0.179 | 0.271 | 0.183 | 0.976 | 0.987 | 1.04 | 1.18 | 1.14 | 0.427 | 0.357 | 0.471 | 0.446 | 0.544
4 | NCI-H1915 | 0.9 | 0.919 | 0.903 | 1.02 | 0.967 | 0.422 | 0.43 | 0.393 | 0.438 | 0.399 | 1 | 0.995 | 1 | 1.01 | 1 | 0.267 | 0.261 | 0.265 | 0.291 | 0.268
5 | NCI-H661 | 0.351 | 0.419 | – | 0.404 | 0.361 | 0.382 | 0.34 | 0.376 | 0.376 | 0.355 | 0.875 | 0.702 | 0.628 | 1.12 | 0.949 | 0.718 | 0.731 | 0.727 | 0.759 | 0.737
6 | NCI-H520 | 0.327 | 0.295 | 0.289 | 0.363 | 0.297 | 0.519 | 0.507 | 0.402 | 0.38 | 0.481 | 0.54 | 0.591 | 0.565 | 0.743 | 0.729 | 0.395 | 0.312 | 0.29 | 0.335 | 0.341
7 | NCI-H1563 | 0.596 | 0.632 | 0.622 | 0.664 | 0.661 | – | – | – | – | – | 0.842 | 0.882 | 0.807 | 1.04 | 0.858 | – | – | – | – | –
8 | NCI-H1703 | 0.239 | 0.238 | 0.244 | 0.233 | 0.238 | – | – | – | – | – | 0.441 | 0.329 | 0.371 | 0.397 | 0.567 | 0.413 | 0.421 | 0.858 | 0.451 | 0.394
9 | NCI-H358 | 0.339 | 0.349 | 0.218 | 0.366 | 0.304 | 0.0888 | 0.122 | 0.0944 | 0.109 | 0.103 | – | – | – | – | – | 0.671 | 0.632 | 0.65 | 0.703 | 0.519
